Patent US20120172650A1, “USE OF SO[…] AN ANALOGUE THEREOF IN COMBINATION WITH EXTERNAL RADIATION THERAPY” (priority 2009, published 2012)
Like-named read-outs stand apart in the source and are kept apart here.

How the values were obtained:
[1] = system: GH3 cells; experiment: Apoptosis and cell cycle analysis by FACScan flow cytometry (propidium iodide); type: cell-based, rat; conditions: for apoptotic sub-G1 cells: 48 hours after 10 Gy radiation
Experimental: Apoptosis and cell cycle distribution was analyzed using a FACScan flow cytometer (BD Biosciences, San Jose, Calif.). The level of apoptosis was quantified by measuring the number of sub-diploid (sub-G1) cells. Briefly, GH3 cells were plated in 60 mm dishes at a density of approximately 500,000 cells/dish and treated with lanreotide and gamma irradiation. Approximately 48 to 168 hours after exposure, the cells were collected and washed with cold PBS supplemented with 5 mM EDTA. Cells were re-suspended in cold PBS-EDTA solution and fixed with cold 100% ethanol. After incubation for 30 minutes at room temperature, the cells were centrifuged and the pellet of cells was treated with 100 μg/ml of RNase A in a PBS-EDTA solution for 30 minutes at room temperature. Propidium iodide (PI) was added to a final concentration of 50 μg/ml and the DNA content was analyzed with a FACScan flow cytometer (BD Biosciences, San Jose, Calif.). The percentage of cells in the apoptotic sub-G1, G1, S, and G2/M phases was calculated.
GH3 cells were placed in 60 mm Petri dishes at a concentration of approximately 500,000 cells/dish and allowed to grow overnight. Lanreotide at 100 nM was added at 48 hours, 24 hours or immediately (0 hours) before irradiation. Cells were irradiated with 10 Gy gamma radiation at room temperature and collected 48, 72, 96 and 168 hours after exposure.
The DNA content of the cells was analyzed using a FACScan and the percentages of cells in the apoptotic sub-G1, G1, S and G2/M phases were calculated. […] The percentage of cells in sub-G1, G1, S and G2/M phases at 48 hours was 1.4±0.2%, 73.2±1.0%, 8.4±1.0% and 16.9±1.8%, respectively.

[2] = Tolerability in GH3 tumor-bearing mice (body weight, appearance, activity); type: in vivo, nude mice
Experimental: (§1) Tumor volume was calculated using the formula: tumor volume (mm^3)=π/6×length×width^2. The length and width of the tumors were measured with calipers before treatment and three times a week thereafter, until the tumor volume reached at least 4 times (4×) the pre-treatment volume. The tumor volume quadrupling (4×) time was determined by a best-fit regression analysis. The tumor growth delay (TGD) time (in days) is the difference between the tumor volume quadrupling time of treated tumors compared to the tumor volume quadrupling time of untreated control tumors. Both the tumor volume quadrupling time and tumor growth delay time were calculated for each individual animal and then averaged for each group. In some experiments, a complete response of tumors was recorded if a tumor shrunk to the point that it was not palpable at the end of the experiment. Body weight was measured twice a week.

[3] = system: GH3 xenograft tumors; experiment: Mouse GH3 xenograft tumor model, tumor growth delay; type: in vivo, nude mice
Experimental: Male nude mice, 8 weeks old and 20-25 grams in body weight, were used in this study (Charles River Laboratories, Hollister, Calif.). Prior to experimentation the mice were tested and found to be negative for specific pathogens. The mice were maintained under specific-pathogen-free conditions and allowed to breed. Sterilized food and water were available ad libitum.
Tumors were initiated in the in the right flank of the mice by a subcutaneous injection of 5×10^6 tumor cells suspended in 100 μl of a 1:1 mixture of Hank's solution and Matrigel (BD Biosciences, San Jose, Calif.). Each mouse received one inoculation injection. When the tumors reached an average size of 120 mm^3 (80-200 mm^3), the mice were randomly assigned to different treatment groups with 5-8 mice in each group. Lanreotide was administered to each mouse via subcutaneous injection. […]
Local irradiation of individual tumors was carried out as follows. Unanesthetized tumor-bearing mice were placed in lead boxes, positioned so as to have the tumors protruding through a cut-out window at the rear of each box. The radiation dose was delivered using a Philips RT-250 200 kVp X-ray unit (12.5 mA; Half Value Layer, 1.0-mm Cu) at a dose rate of 138 cGy/min. The tumors were exposed to 150-250 cGy per fraction daily for 5 consecutive days as specified in each experiment.
as §1

[4] = system: GH3 cells; type: cell-based, rat; conditions: for surviving fraction at 10 Gy: 100 nM lanreotide, plus 10 Gy radiation (radiation alone 0.0006); for cell survival rate (colony forming units): 21 days
From the text: Currently, there are no human pituitary GH-secreting cell lines that can be maintained in a differentiated state in vitro for sufficient time for colony formation assessment (Danila, D. C. et al., J. Clin. Endocrinol. Metab., 2001, 86:2976-8; Danila, D. C. et al., J. Clin. Endocrinol. Metab., 2000, 85:1180-7). As such, a rat GH3 pituitary tumor cell line was purchased from ATCC. The GH3 cells were maintained in DMED/F-12 medium (Gibco BRL, Grand Island, N.Y.) supplemented with 10% fetal calf serum, 100 units/ml penicillin and 100 μg/ml streptomycin in a 37° C. humidified incubator with a mixture of 95% air and 5% CO2. All experiments were performed on exponentially growing cells with a doubling time of approximately 30 hours.
GH3 cells were detached from the cell culture support using a 0.05% trypsin-EDTA solution. The collected cells were counted, diluted in fresh growth medium and plated in triplicate in 60 mm Petri dishes (BD Biosciences, San Jose, Calif.) at dilutions of approximately 100-100,000 cells/dish. Lanreotide (Biomeasure, Inc., Milford, Mass., USA) was added to the diluted cells at final concentrations of 1-1000 nM. The cells were irradiated with 0-10 Gy at room temperature using a ^137Cs source with a dose rate of 300 cGy/min. Following exposure to lanreotide or gamma irradiation, the media was drained from the dish, the cells were washed twice with PBS (phosphate buffered saline) solution and the plates were filled with fresh growth medium. After incubation at 37° C. for 21 days, the cells were stained with 0.25% crystal violet. Colonies containing ≧50 cells were counted under a dissecting microscope and survival curves were generated. The plating efficiency (PE) was calculated as the percentage of cells plated that grew into colonies. The surviving fraction (SF) was defined as the fraction of cells surviving, i.e. number of colonies/(number of […]×PE).
GH3 cells were plated in 60 mm tissue culture dishes and incubated overnight prior to treatment with the somatostatin agonist analog. Lanreotide was added to the cells to a final concentration of 1-1000 nM. After a 21 day incubation period in the presence of lanreotide the cells were stained and colonies with >50 cells were counted.
GH3 cells were plated in tissue culture dishes and allowed to incubate overnight prior to treatment. At 48, 24 or 0 hours before radiation exposure, lanreotide was added to the cells at a final concentration of 100 nM or 1000 nM. At 48, 24 or 0 hours after the addition of the lanreotide, the GH3 cells were irradiated with 0-10 Gy at room temperature with a Cs-137 gamma irradiator. Following irradiation, cells with 24-hour or 0-hour pre-exposure to lanreotide were incubated in lanreotide-containing media for an additional 24 or 48 hours, respectively. After a total of 48-hour exposure, lanreotide-containing media was removed from the plates, the cells washed twice with PBS solution and fresh growth media added to the cells. Cells that were irradiated without exposure to lanreotide were also washed twice with PBS and supplied with fresh media. The cells were incubated for 21 days for colony formation.

Structure (SMILES): CC(C)[C@@H]1NC(=O)[C@H](CCCCN)NC(=O)[C@@H](Cc2c[nH]c3ccccc23)NC(=O)[C@H](Cc2ccc(O)cc2)NC(=O)[C@@H](NC(=O)[C@H](N)Cc2ccc3ccccc3c2)CSSC[C@@H](C(=O)N[C@H](C(N)=O)[C@@H](C)O)NC1=O [lanreotide, D-2-Nal-Cys-Tyr-D-Trp-Lys-Val-Cys-Thr-NH2]
- percentage of cells in sub-G1 phase ([1]; 100 nM lanreotide alone (control 1.4±0.2% at 48 hours)): 2.28±0.3%
- percentage of cells in S phase ([1]; 100 nM lanreotide alone (control 8.4±1.0%)): 7.72±0.8%
- percentage of cells in G2/M phase ([1]; 100 nM lanreotide alone (control 16.9±1.8%)): 16.2±0.5%
- percentage of cells in G1 phase ([1]; 100 nM lanreotide alone (control 73.2±1.0%)): 73.8±1.1%
- apoptotic sub-G1 cells ([1]; 100 nM lanreotide 0 hours pre-exposure (radiation alone 4.9%)): 13.4%
- apoptotic sub-G1 cells ([1]; 100 nM lanreotide 24 hours pre-exposure (radiation alone 4.9%)): 9.3%
- apoptotic sub-G1 cells ([1]; 100 nM lanreotide 48 hours pre-exposure (radiation alone 4.9%)): 8.6%
- sub-G1 cell fraction ([1]; 168 hours after 10 Gy radiation, radiation plus 100 nM lanreotide (radiation alone 12%)): 20-22%
- signs of systemic toxicity (general appearance, skin reaction, body weight, activity) ([2]; 10 mg/kg for 10 days alone and in combination with 150 cGy external radiation): did not result in any obvious signs of systemic toxicity
- animal body weight, combination vs fractionated radiation alone ([2]; 10 mg/kg lanreotide plus 150-250 cGy/fraction for 5 days): did not cause any further decrease in animal body weight
- general appearance and daily activity ([2]; 2.5-50 mg/kg daily for 5 days): no notable change
- body weight compared to untreated control mice ([2]; 2.5-50 mg/kg daily for 5 days, all doses tested): did not cause significant decrease in body weight
- tumor growth delay time, pre-administration plus radiation ([3]; 10 mg/kg lanreotide 5 days, then lanreotide plus 150 cGy daily for 5 days (radiation alone 15.5±8.8 days)): 15.1 ± 8.6 days
- once daily vs twice daily dosing in reducing tumor growth ([3]; 2.5, 5 or 10 mg/kg s.c. qd or bid for 5 days, p=0.3-0.9): lanreotide delivered once a day was as effective as lanreotide delivered twice daily
- tumor growth 4× delay ([3]; dose response study, 10 mg/kg s.c. daily for 5 days (optimal dose, bell-shaped curve)): 13.1 ± 4.7 days
- complete tumor regression ([3]; irradiation and combination therapy groups, study terminated after 60 days): Two mice from the irradiation and combination therapy groups exhibited complete tumor regression
- 4×TGD ([3]; lanreotide alone 10 mg/kg daily for 10 days, p=0.06 vs. control): 8.3 ± 8.3 days
- tumor growth 4× delay ([3]; regimen comparison, 5 mg/kg twice daily for 5 days): 1.1 ± 3.1 days
- tumor growth 4× delay ([3]; regimen comparison, 10 mg/kg once daily for 5 days): 4.9 ± 2.1 days
- surviving fraction at 10 Gy ([4]; 0 hour pre-exposure): 0.00042
- surviving fraction at 10 Gy ([4]; 24 hours pre-exposure): 0.0004
- surviving fraction at 10 Gy ([4]; 48 hours pre-exposure): 0.00022
- effect on radiation survival curves ([4]; 1000 nM lanreotide for 48 hours with 0-10 Gy radiation): did not alter the shape and slopes of the radiation survival curves
- IC50 ([4]; GH3 cells, 21 day incubation in the presence of lanreotide, read-out: IC50 (50% inhibition of cell growth), colony formation): 57 nM
- cell survival rate (colony forming units) ([4]; lanreotide 1 nM): 75%
- cell survival rate (colony forming units) ([4]; lanreotide 10 nM): 56%
- cell survival rate (colony forming units) ([4]; lanreotide 100 nM): 39%
- cell survival rate (colony forming units) ([4]; lanreotide 1000 nM): 27%
- reduction of clonogenic survival compared with untreated controls ([4]; lanreotide alone 100 nM or 1000 nM for 48 hours, without radiation): 5-10%
